In ChEMBL document CHEMBL5390237, “Discovery of Selective Histone Deacetylase 1 and 2 Inhibitors: Screening of a Focused Library Constructed by Click Chemistry, Kinetic Binding Analysis, and Biological Evaluation” (J Med Chem, 2023):

Molecular target: Histone deacetylase 2 (Homo sapiens, UniProt Q92769)
Assay: Inhibition of full-length recombinant human C-terminal GST tagged HDAC2 expressed in Sf9 insect cells using aminoluciferin peptide substrate at 100 nM preincubated for 3 hrs followed by substrate addition and measured after 30 mins by HDAC-Glo I/II chemiluminescence assay
Conditions: time 3.5 hrs

Chain of Histone deacetylase 2 (Q92769 whole entry): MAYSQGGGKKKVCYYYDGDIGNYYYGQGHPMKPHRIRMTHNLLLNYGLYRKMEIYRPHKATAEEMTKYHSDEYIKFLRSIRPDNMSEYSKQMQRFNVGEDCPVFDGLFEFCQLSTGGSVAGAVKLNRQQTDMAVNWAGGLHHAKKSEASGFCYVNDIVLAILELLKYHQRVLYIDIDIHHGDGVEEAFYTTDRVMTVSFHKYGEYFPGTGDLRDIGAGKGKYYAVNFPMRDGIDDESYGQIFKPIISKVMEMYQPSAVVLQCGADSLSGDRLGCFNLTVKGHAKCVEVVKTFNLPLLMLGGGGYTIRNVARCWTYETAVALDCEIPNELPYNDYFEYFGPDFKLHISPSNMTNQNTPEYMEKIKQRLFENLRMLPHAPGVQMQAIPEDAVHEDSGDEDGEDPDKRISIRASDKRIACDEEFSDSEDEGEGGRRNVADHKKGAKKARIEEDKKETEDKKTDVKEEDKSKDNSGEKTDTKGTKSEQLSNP

Point of comparison: `Nc1ccc(-c2cccs2)cc1NC(=O)c1ccc(-c2cn(CCCCC(=O)O)nn2)s1`, inhibition 51%. Against it:
- Nc1ccc(-c2ccc(F)cc2)cc1NC(=O)CCc1cn(-c2cccc3ccccc23)nn1 — lower, 0%
- Nc1ccc(-c2cccnc2)cc1NC(=O)CCc1cn(CCC2CCCC2)nn1 — lower, 0%
- COc1ccccc1CCn1cc(-c2ccc(C(=O)Nc3cc(-c4cccs4)ccc3N)s2)nn1 — lower, 20%
- Nc1ccc(-c2ccccc2)cc1NC(=O)CCc1cn(CCCCCC(=O)O)nn1 — lower, 0%
- Nc1ccc(-c2ccccc2)cc1NC(=O)CCc1cn(CCc2c[nH]c3ccccc23)nn1 — lower, 20%
- Nc1ccc(-c2ccc(F)cc2)cc1NC(=O)c1cn(CCc2ccccn2)nn1 — lower, 16%
- Nc1ccc(-c2ccc(F)cc2)cc1NC(=O)CCc1cn(Cc2cc3ccccc3s2)nn1 — lower, 3%
- Nc1ccc(-c2cccs2)cc1NC(=O)c1ccc(-c2cn(/C=C/c3ccccc3)nn2)s1 — lower, 5%
- Nc1ccc(-c2cccs2)cc1NC(=O)c1ccc(-c2cn(Cc3cc4ccccc4s3)nn2)s1 — lower, 0%
- Nc1ccc(-c2cccs2)cc1NC(=O)c1ccc(-c2cn(CCc3ccc([N+](=O)[O-])cc3)nn2)cc1 — lower, 42%
- Nc1ccc(-c2cccs2)cc1NC(=O)c1cn(-c2ccc(O)cc2)nn1 — lower, 0%
- Nc1ccc(-c2ccsc2)cc1NC(=O)CCc1cn(-c2ccc(I)cc2)nn1 — lower, 0%
- Nc1ccc(-c2ccccc2)cc1NC(=O)c1cn(CCC2CCCC2)nn1 — lower, 0%
- Nc1ccc(-c2ccsc2)cc1NC(=O)c1cn(CCc2c[nH]c3ccccc23)nn1 — lower, 6%
- Nc1ccc(-c2cccnc2)cc1NC(=O)CCc1cn(CCC23CC4CC(CC(C4)C2)C3)nn1 — lower, 5%
- Nc1ccc(-c2ccc(F)cc2)cc1NC(=O)CCc1cn(CCC23CC4CC(CC(C4)C2)C3)nn1 — lower, 0%
- Nc1ccc(-c2ccccc2)cc1NC(=O)CCc1cn(CC(=O)c2ccccc2)nn1 — lower, 18%
- Nc1ccc(-n2cc(CCC(=O)Nc3cc(-c4ccc(F)cc4)ccc3N)nn2)cc1 — lower, 21%
- Nc1ccc(-c2ccc(F)cc2)cc1NC(=O)CCc1cn(CCc2c[nH]c3ccccc23)nn1 — lower, 30%
- Cc1cccc(CCn2cc(C(=O)Nc3cc(-c4ccsc4)ccc3N)nn2)c1 — lower, 7%
- Nc1ccc(-c2cccs2)cc1NC(=O)c1cccc(-c2cn(CCc3ccc(C(F)(F)F)cc3)nn2)c1 — lower, 0%
- Nc1ccc(-c2ccccc2)cc1NC(=O)c1cn(CCc2cccc(F)c2)nn1 — lower, 0%
- COc1ccc(CCn2cc(-c3ccc(C(=O)Nc4cc(-c5cccs5)ccc4N)cc3)nn2)cc1 — lower, 40%
- Cc1csc(CCn2cc(CCC(=O)Nc3cc(-c4ccc(F)cc4)ccc3N)nn2)n1 — lower, 37%
- Nc1ccc(-c2cccs2)cc1NC(=O)c1ccc(-c2cn(CCc3cccc4ccccc34)nn2)s1 — lower, 0%
- Nc1ccc(-c2cccs2)cc1NC(=O)c1cn(CCc2cccc(C(F)(F)F)c2)nn1 — lower, 0%
- Nc1ccc(-c2ccsc2)cc1NC(=O)c1cn(Cc2cccc(C(=O)O)c2)nn1 — lower, 0%
- Nc1ccc(-c2ccccc2)cc1NC(=O)c1cn(CCCCCCC(=O)O)nn1 — lower, 0%
- Nc1ccc(-c2cccs2)cc1NC(=O)c1cn(CC(=O)c2ccccc2)nn1 — lower, 15%
- Nc1ccc(-c2cccs2)cc1NC(=O)c1ccc(-c2cn(Cc3ccc(OC(F)(F)F)cc3)nn2)cc1 — lower, 5%
- Nc1ccc(-c2cccs2)cc1NC(=O)CCc1cn(Cc2ccc(OC(F)(F)F)cc2)nn1 — lower, 17%
- COc1ccc(-n2cc(CCC(=O)Nc3cc(-c4cccs4)ccc3N)nn2)cc1 — lower, 14%
- Nc1ccc(-c2ccsc2)cc1NC(=O)CCc1cn(Cc2cc3ccccc3s2)nn1 — lower, 3%
- Nc1ccc(-c2ccccc2)cc1NC(=O)CCc1cn(CCc2cccc([N+](=O)[O-])c2)nn1 — lower, 30%
- Nc1ccc(-c2cccs2)cc1NC(=O)c1ccc(-c2cn(-c3ccc([N+](=O)[O-])cc3)nn2)s1 — lower, 7%
- Nc1ccc(-c2ccsc2)cc1NC(=O)CCc1cn(CCN2CCc3ccccc3C2)nn1 — lower, 18%
- Cc1ccc(CCn2cc(-c3ccc(C(=O)Nc4cc(-c5cccs5)ccc4N)cc3)nn2)cc1 — lower, 19%
- Nc1ccc(-c2cccs2)cc1NC(=O)c1ccc(-c2cn(Cc3cccc(C(=O)O)c3)nn2)s1 — lower, 25%
- Nc1ccc(-c2cccs2)cc1NC(=O)CCc1cn(CCc2ccc(C(=O)O)cc2)nn1 — lower, 35%
- Cc1ccccc1CCn1cc(CCC(=O)Nc2cc(-c3ccsc3)ccc2N)nn1 — lower, 14%
- Nc1ccc(-c2ccc(F)cc2)cc1NC(=O)CCc1cn(-c2ccc(Br)cc2)nn1 — lower, 0%
- Nc1ccc(-c2ccccc2)cc1NC(=O)c1cn(CCCCCCCC(=O)O)nn1 — lower, 0%
- Nc1ccc(-c2cccnc2)cc1NC(=O)CCc1cn(CCc2cccc(F)c2)nn1 — lower, 13%
- Nc1ccc(-c2cccs2)cc1NC(=O)c1ccc(-c2cn(CC3CCCCC3)nn2)s1 — lower, 0%
- Cc1ccc(CCn2cc(CCC(=O)Nc3cc(-c4cccs4)ccc3N)nn2)cc1 — lower, 30%
- Nc1ccc(-c2cccs2)cc1NC(=O)c1ccc(-c2cn(Cc3nc4ccccc4[nH]3)nn2)cc1 — lower, 37%
- Nc1ccc(-c2ccsc2)cc1NC(=O)c1cn(CCCCCCC(=O)O)nn1 — lower, 8%
- Nc1ccc(-c2cccs2)cc1NC(=O)c1ccc(-c2cn(CS(=O)(=O)c3ccccc3)nn2)s1 — lower, 44%
- Nc1ccc(-c2cccs2)cc1NC(=O)c1ccc(-c2cn(CCc3ccc(Cl)cc3)nn2)s1 — lower, 3%
- Nc1ccc(-c2cccs2)cc1NC(=O)c1cn(Cc2cccc(C(=O)O)c2)nn1 — lower, 0%
- Nc1ccc(-c2cccs2)cc1NC(=O)CCc1cn(CC(=O)c2ccccc2)nn1 — lower, 13%
- Nc1ccc(-c2cccs2)cc1NC(=O)c1ccc(-c2cn(CCc3ccccc3)nn2)s1 — lower, 40%
- Nc1ccc(-n2cc(-c3cccc(C(=O)Nc4cc(-c5cccs5)ccc4N)c3)nn2)cc1 — lower, 30%
- Nc1ccc(-c2ccc(F)cc2)cc1NC(=O)c1cn(/C=C/c2ccccc2)nn1 — lower, 3%
- Nc1ccc(-c2ccccc2)cc1NC(=O)CCc1cn(CCc2cccc(C(F)(F)F)c2)nn1 — lower, 1%
- Nc1ccc(-c2ccccc2)cc1NC(=O)c1cn(CCc2ccsc2)nn1 — lower, 0%
- Nc1ccc(-c2ccccc2)cc1NC(=O)c1cn(CCc2ccccn2)nn1 — lower, 0%
- Nc1ccc(-c2ccc(F)cc2)cc1NC(=O)c1cn(CCCCCc2ccccc2)nn1 — lower, 1%
- Nc1ccc(-c2cccs2)cc1NC(=O)c1cccc(-c2cn(CCCCCCCC(=O)O)nn2)c1 — lower, 3%
- COc1ccc(Cn2cc(CCC(=O)Nc3cc(-c4ccccc4)ccc3N)nn2)cc1 — lower, 6%
- Nc1ccc(-c2cccs2)cc1NC(=O)c1ccc(-c2cn(CCN3CCOCC3)nn2)cc1 — higher, 75%
- Nc1ccc(-c2ccsc2)cc1NC(=O)CCc1cn(-c2ccc(O)cc2)nn1 — lower, 16%
- Nc1ccc(-c2ccc(F)cc2)cc1NC(=O)c1cn(CCc2cccc(C(F)(F)F)c2)nn1 — lower, 0%
- Nc1ccc(-c2cccs2)cc1NC(=O)c1ccc(-c2cn(CCc3ccsc3)nn2)cc1 — lower, 26%
- Cc1csc(CCn2cc(-c3cccc(C(=O)Nc4cc(-c5cccs5)ccc4N)c3)nn2)n1 — lower, 24%
- Nc1ccc(-c2ccsc2)cc1NC(=O)c1cn(Cc2ccc(Oc3ccccc3)cc2)nn1 — lower, 0%
- Cc1ccc(CCn2cc(CCC(=O)Nc3cc(-c4cccnc4)ccc3N)nn2)cc1 — lower, 18%
- Nc1ccc(-c2cccnc2)cc1NC(=O)CCc1cn(Cc2cc3ccccc3s2)nn1 — lower, 9%
- Nc1ccc(-c2ccc(F)cc2)cc1NC(=O)c1cn(-c2ccc(Br)cc2)nn1 — lower, 10%
- Nc1ccc(-c2cccs2)cc1NC(=O)c1cccc(-c2cn(CCC34CC5CC(CC(C5)C3)C4)nn2)c1 — lower, 9%
- Nc1ccc(-c2ccc(F)cc2)cc1NC(=O)CCc1cn(CCCCCC(=O)O)nn1 — lower, 0%
- Nc1ccc(-c2ccc(F)cc2)cc1NC(=O)CCc1cn(CCc2ccccc2[N+](=O)[O-])nn1 — lower, 20%
- Nc1ccc(-c2ccc(F)cc2)cc1NC(=O)CCc1cn(CS(=O)(=O)c2ccccc2)nn1 — lower, 13%
- Nc1ccc(-c2ccccc2)cc1NC(=O)c1cn(Cc2nc3ccccc3[nH]2)nn1 — lower, 11%
- Nc1ccc(-c2ccccc2)cc1NC(=O)CCc1cn(/C=C/c2ccccc2)nn1 — lower, 15%
- Nc1ccc(-c2cccs2)cc1NC(=O)CCc1cn(CCc2cccc([N+](=O)[O-])c2)nn1 — lower, 27%
- Nc1ccc(-c2ccsc2)cc1NC(=O)c1cn(CCCCC(=O)O)nn1 — lower, 0%
- Nc1ccc(-c2cccs2)cc1NC(=O)c1ccc(-c2cn(-c3cccc4ccccc34)nn2)cc1 — lower, 0%
- Nc1ccc(-c2cccs2)cc1NC(=O)CCc1cn(CCc2ccccc2C(F)(F)F)nn1 — lower, 0%
- Nc1ccc(-c2cccnc2)cc1NC(=O)CCc1cn(Cc2cccc3ccccc23)nn1 — lower, 12%
- COc1ccc(-n2cc(CCC(=O)Nc3cc(-c4ccc(F)cc4)ccc3N)nn2)cc1 — lower, 10%
- Nc1ccc(-c2cccs2)cc1NC(=O)c1ccc(-c2cn(CCC3CCCC3)nn2)cc1 — lower, 0%
- COc1ccc(Cn2cc(-c3cccc(C(=O)Nc4cc(-c5cccs5)ccc4N)c3)nn2)cc1 — lower, 0%
- Nc1ccc(-c2ccccc2)cc1NC(=O)CCc1cn(CCCCCc2ccccc2)nn1 — lower, 0%
- Nc1ccc(-c2cccnc2)cc1NC(=O)CCc1cn(-c2ccc(I)cc2)nn1 — lower, 1%
- Nc1ccc(-c2ccc(F)cc2)cc1NC(=O)CCc1cn(CCc2ccccc2)nn1 — lower, 37%
- Nc1ccc(-c2cccnc2)cc1NC(=O)CCc1cn(/C=C/c2ccccc2)nn1 — lower, 7%
- Cc1cccc(C)c1NC(=O)Cn1cc(CCC(=O)Nc2cc(-c3ccccc3)ccc2N)nn1 — lower, 19%
- COc1ccccc1CCn1cc(-c2cccc(C(=O)Nc3cc(-c4cccs4)ccc3N)c2)nn1 — lower, 3%
- Nc1ccc(-c2cccs2)cc1NC(=O)c1ccc(-c2cn(CCC3CCCCC3)nn2)s1 — lower, 0%
- Nc1ccc(-c2cccs2)cc1NC(=O)c1ccc(-c2cn(Cc3ccc4ccccc4n3)nn2)cc1 — higher, 52%
- Cc1cccc(C)c1NC(=O)Cn1cc(C(=O)Nc2cc(-c3ccsc3)ccc2N)nn1 — lower, 24%
- Nc1ccc(-c2ccsc2)cc1NC(=O)CCc1cn(-c2ccccc2-c2ccccc2)nn1 — lower, 2%
